Test results taken from ChEMBL document CHEMBL1151654, “Antineoplastic and piscicidal 1-alkyldaphnane orthoesters from Pimelea species” (J Nat Prod, 1985).

Tests used:
Gambusia affinis = assay: Toxicity against Gambusia affinis at 30 to 60 ug/L within 24 hrs; type: organism-based; details: in vivo
P388 [1] = assay: In vivo antitumor activity against mouse P388 cells at 100 ug/kg relative to control; type: functional
P388 [2] = assay: In vivo antitumor activity against mouse P388 cells at 300 ug/kg relative to control; type: functional

| SMILES | Activity (Gambusia affinis) | T/C (P388 [1]) | T/C (P388 [2]) |
| --- | --- | --- | --- |
| C=C(C)[C@@]12C[C@@H](COC(=O)c3ccccc3)[C@@]34OC5(O[C@@H]1[C@@H]3[C@@H]1O[C@]1(CO)[C@@H](O)[C@@]1(O)[C@H]4[C@H]([C@H](C)[C@@H]1OC(=O)c1ccccc1)[C@H](C)CCCCCC[C@H]5O)O2 [GNIDIMACRIN] | Toxic |  |  |
| C=C(C)[C@@]12C[C@@H](C)[C@@]34OC5(O[C@@H]1[C@@H]3[C@@H]1O[C@]1(CO)[C@@H](O)[C@@]1(O)[C@H]4[C@H]([C@H](C)[C@@H]1OC(=O)c1ccccc1)[C@H](C)CCCCCC[C@H]5O)O2 [KRAUSSIANIN] | Toxic |  |  |
| C=C1C(=O)O[C@H]2C[C@@H](C)[C@@H]3C=CC(=O)[C@@]3(C)[C@H](OC(C)=O)[C@H]12 [LINIFOLIN A] | Toxic | 107% |  |
| C=C(C)[C@@]12C[C@@H](C)[C@@]34OC5(O[C@@H]1[C@@H]3[C@@H]1O[C@]1(CO)[C@@H](O)[C@@]1(O)[C@H]4[C@H]([C@H](C)[C@@H]1OC(=O)c1ccccc1)[C@@H](C)CCCCCC[C@H]5O)O2 [LINIMACRIN C] | Toxic |  |  |
| C=C(C)[C@]12OC34CCCCCCC[C@@H](C)[C@H]5[C@H](C)[C@H](OC(=O)c6ccccc6)[C@@]6(O)[C@H](O)[C@@]7(CO)O[C@H]7[C@@H]([C@H]1O3)[C@](O4)([C@H](C)[C@H]2OC(C)=O)[C@H]56 [LINIMACRIN D] | Toxic |  | 132% |
| C=C(C)[C@]12C[C@@H](C)[C@@]34OC5(CCCCCCC[C@H](C)[C@H]6[C@H](C)[C@H](OC(=O)c7ccccc7)[C@@](O)([C@H](O)[C@@]7(CO)O[C@H]7[C@H]3[C@H]1O5)[C@@H]64)O2 [PIMELEA FACTOR P2] | Toxic |  |  |
| C=C(C)[C@@]12C[C@@H](C)[C@@]34OC5(CCCCCCC[C@@H](C)[C@H]6[C@H](C)[C@H](OC(=O)c7ccccc7)[C@@](O)([C@H](O)[C@@]7(CO)O[C@H]7[C@H]3[C@H]1O5)[C@@H]64)O2 [PIMELEA FACTOR P3] | Toxic |  | 164% |
| C=C(C)[C@@]12C[C@@H](COC(=O)c3ccccc3)[C@@]34OC5(O[C@@H]1[C@@H]3[C@@H]1O[C@]1(CO)[C@@H](O)[C@@]1(O)[C@H]4[C@H]([C@H](C)[C@@H]1OC(=O)c1ccc(OC(C)=O)cc1)[C@H](C)CCCCCC[C@H]5O)O2 [SIMPLEXIMACRIN] | Toxic |  |  |
